{
  "source": "ChEMBL document CHEMBL5120887",
  "about": "“Hybrid Diterpenic Meroterpenoids from an Endophytic Penicillium sp. Induced by Chemical Epigenetic Manipulation” (J Nat Prod, 2022)",
  "target": "Acetylcholinesterase (Homo sapiens, UniProt P22303)",
  "sequence (P22303 whole entry)": "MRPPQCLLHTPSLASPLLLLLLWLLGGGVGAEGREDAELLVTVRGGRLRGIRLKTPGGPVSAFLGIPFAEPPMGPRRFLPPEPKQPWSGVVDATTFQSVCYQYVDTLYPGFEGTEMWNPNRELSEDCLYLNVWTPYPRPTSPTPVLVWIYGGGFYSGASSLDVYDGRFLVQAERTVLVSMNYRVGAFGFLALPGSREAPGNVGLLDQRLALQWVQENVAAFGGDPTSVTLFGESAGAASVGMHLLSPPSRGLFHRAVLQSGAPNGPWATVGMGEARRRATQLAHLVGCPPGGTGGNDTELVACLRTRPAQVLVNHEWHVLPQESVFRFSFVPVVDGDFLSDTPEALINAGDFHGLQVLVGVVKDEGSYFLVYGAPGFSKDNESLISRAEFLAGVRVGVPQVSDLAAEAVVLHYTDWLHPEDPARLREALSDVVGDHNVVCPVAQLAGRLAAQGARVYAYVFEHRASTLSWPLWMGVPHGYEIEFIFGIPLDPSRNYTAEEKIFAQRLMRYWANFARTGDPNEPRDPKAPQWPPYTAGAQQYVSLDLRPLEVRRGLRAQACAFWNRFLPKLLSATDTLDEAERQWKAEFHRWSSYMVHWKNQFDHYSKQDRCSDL",
  "assay": "Inhibition of AChE in human Erythrocyte incubated for 20 mins by Ellman reagent based spectrophotometry",
  "type": "cell-based",
  "data": [
    {"smiles": "C=C(C)[C@]1(O)CC[C@@]2(C)C3=Cc4c(cc(-c5cccnc5)oc4=O)O[C@]3(C)[C@@H](O)C[C@@H]2[C@@]12CCC(=O)OC2", "values": [
      {"measurement": "IC50", "value": 13.9, "unit": "µM"}
    ]}
  ]
}
